Test results taken from EP3623369A1, “NOVEL MORPHOLINYL AMINE COMPOUNDS FOR THE TREATMENT OF AUTOIMMUNE DISEASE” (F. Hoffmann-La Roche AG, priority 2018, dated 2020).

Molecular target: T1, hTLR9 (Homo sapiens, UniProt Q9NR96)
T1 sequence (Q9NR96 26-1032): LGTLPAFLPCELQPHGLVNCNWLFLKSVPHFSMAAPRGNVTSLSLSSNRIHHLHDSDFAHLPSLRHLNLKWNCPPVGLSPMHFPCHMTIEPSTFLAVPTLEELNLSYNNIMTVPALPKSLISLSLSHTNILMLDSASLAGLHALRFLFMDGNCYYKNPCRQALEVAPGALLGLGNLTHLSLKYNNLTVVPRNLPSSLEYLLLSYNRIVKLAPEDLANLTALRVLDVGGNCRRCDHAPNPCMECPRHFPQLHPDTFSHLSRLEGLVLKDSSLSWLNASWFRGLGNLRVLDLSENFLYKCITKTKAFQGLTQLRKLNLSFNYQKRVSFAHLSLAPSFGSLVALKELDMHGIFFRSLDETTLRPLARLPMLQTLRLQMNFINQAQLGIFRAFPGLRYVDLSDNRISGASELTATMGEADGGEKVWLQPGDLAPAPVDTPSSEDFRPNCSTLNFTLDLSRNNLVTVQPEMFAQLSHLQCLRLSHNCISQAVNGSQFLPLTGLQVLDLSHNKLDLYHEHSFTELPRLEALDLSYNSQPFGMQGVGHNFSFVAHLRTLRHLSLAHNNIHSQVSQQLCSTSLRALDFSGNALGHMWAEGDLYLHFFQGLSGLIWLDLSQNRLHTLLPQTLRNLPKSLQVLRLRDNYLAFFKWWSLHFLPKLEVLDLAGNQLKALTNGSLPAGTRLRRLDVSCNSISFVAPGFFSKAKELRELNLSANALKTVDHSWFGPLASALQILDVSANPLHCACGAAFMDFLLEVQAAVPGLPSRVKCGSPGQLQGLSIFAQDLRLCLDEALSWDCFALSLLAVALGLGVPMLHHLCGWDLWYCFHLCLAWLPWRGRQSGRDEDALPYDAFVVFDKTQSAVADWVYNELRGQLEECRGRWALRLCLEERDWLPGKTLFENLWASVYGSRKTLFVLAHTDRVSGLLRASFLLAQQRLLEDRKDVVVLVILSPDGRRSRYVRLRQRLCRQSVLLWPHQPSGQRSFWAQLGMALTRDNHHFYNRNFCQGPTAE
Test: HEK293-Blue-hTLR-9 cells assay (SEAP reporter, ODN2006 stimulation)
Assay type: cell-based
Settings: HEK293-Blue-hTLR9 cells, ODN2006, 20 hrs; 0.032 is the lowest tested concentration; read-out: HEK/hTLR9 IC50
Method: The following tests were carried out in order to determine the activity of the compounds of formula (I) or (Ia) in HEK293-Blue-hTLR-7/8/9 cells assay.
HEK293-Blue-hTLR-9 cells assay:
A stable HEK293-Blue-hTLR-9 cell line was purchased from InvivoGen (Cat.#: hkb-htlr9, San Diego, California, USA). These cells were originally designed for studying the stimulation of human TLR9 by monitoring the activation of NF-κB. A SEAP (secreted embryonic alkaline phosphatase) reporter gene was placed under the control of the IFN-β minimal promoter fused to five NF-κB and AP-1-binding sites. The SEAP was induced by activating NF-κB and AP-1 via stimulating HEK-Blue hTLR9 cells with TLR9 ligands. Therefore the reporter expression was declined by TLR9 antagonist under the stimulation of a ligand, such as ODN2006 (Cat.#: tlrl-2006-1, Invivogen, San Diego, California, USA), for incubation of 20 hrs. The cell culture supernatant SEAP reporter activity was determined using QUANTI-Blue™ kit (Cat.#: rep-qb1, Invivogen, San Diego, California, USA) at a wavelength of 640 nm, a detection medium that turns purple or blue in the presence of alkaline phosphatase.
HEK293-Blue-hTLR9 cells were incubated at a density of 250,000∼450,000 cells/mL in a volume of 170 µL in a 96-well plate in Dulbecco's Modified Eagle's medium (DMEM) containing 4.5 g/L glucose, 50 U/mL penicillin, […], […], 2 mM L-glutamine, 10% (v/v) heat-inactivated fetal bovine serum with addition of 20 µL test compound in a serial dilution in the presence of final DMSO at 1% and 10 µL of 20uM ODN2006 in above DMEM, perform incubation under 37 °C in a CO2 incubator for 20 hrs. Then 20 µL of the supernatant from each well was incubated with 180 µL Quanti-blue substrate solution at 37 °C for 2 hrs and the absorbance was read at 620∼655 nm using a spectrophotometer. The signalling pathway that TLR9 activation leads to downstream NF-κB activation has been widely accepted, and therefore similar reporter assay was modified for evaluating TLR9 antagonist.

In the case of `C[C@@H]1CN(c2ccc(C#N)c3ncccc23)C[C@H](CN2Cc3cc(N4CCN(C)CC4)cc(F)c3C2)O1` [Example 69, 5-[(2S,6R)-2-[[4-fluoro-6-(4-methylpiperazin-1-yl)isoindolin-2-yl]methyl]-6-methyl-morpholin-4-yl]quinoline-8-carbonitrile], the IC50 is reported as 81 nM.

Compound `C[C@@H]1CN(c2ccc(C#N)n3nccc23)C[C@H](CN2Cc3ccc(N4CCNCC4)cc3C2)O1` [Example 4, 4-[(2R,6S)-2-methyl-6-[(5-piperazin-1-ylisoindolin-2-yl)methyl]morpholin-4-yl]pyrazolo[1,5-a]pyridine-7-carbonitrile] has an IC50 of 55 nM.

With `C[C@@H]1CN(c2ccc(C#N)c3nccnc23)C[C@H](CN2Cc3ccc(N4CCNCC4)cc3C2)O1` [Example 12, 8-[(2R,6S)-2-methyl-6-[(5-piperazin-1-ylisoindolin-2-yl)methyl]morpholin-4-yl]quinoxaline-5-carbonitrile] the IC50 was 52 nM.

`C[C@@H]1CN(c2ccc(C#N)c3nccnc23)C[C@H](CN2Cc3ccc(N4CC5COCC(C4)N5)cc3C2)O1` [Example 49, 8-[(2R,6S)-2-methyl-6-[[5-(3-oxa-7,9-diazabicyclo[3.3.1]nonan-7-yl)isoindolin-2-yl]methyl]morpholin-4-yl]quinoxaline-5-carbonitrile] was tested, and the IC50 was 164 nM.

`C[C@@H]1CN(c2ccc(C#N)c3ncccc23)C[C@H](CN2Cc3ccc(N4C5CCC4CNC5)cc3C2)O1` [Example 43, 5-[(2S,6R)-2-[[5-(3,8-diazabicyclo[3.2.1]octan-8-yl)isoindolin-2-yl]methyl]-6-methyl-morpholin-4-yl]quinoline-8-carbonitrile] was tested, and the IC50 was 88 nM.

Work on `C[C@@H]1CN(c2ccc(Cl)c3nccnc23)C[C@H](CN2Cc3ccc(N4CCNCC4)cc3C2)O1` [Example 33, (2R,6S)-4-(8-chloroquinoxalin-5-yl)-2-methyl-6-[(5-piperazin-1-ylisoindolin-2-yl)methyl]morpholine] yielded an IC50 of 174 nM.

Work on `C[C@@H]1CN(c2ccc(C#N)c3ncccc23)C[C@H](CNCc2ccc(N3CCNCC3)cc2)O1` [Example 86, 5-[(2R,6S)-2-methyl-6-[[(4-piperazin-1-ylphenyl)methylamino]methyl]morpholin-4-yl] quinoline-8-carbonitrile] yielded an IC50 of less than 32 nM.

`C[C@@H]1CN(c2ccc(C#N)c3nccnc23)C[C@H](CNCc2ccc(N3CCNCC3)cc2)O1` [Example 84, 8-[(2R,6S)-2-methyl-6-[[(4-piperazin-1-ylphenyl)methylamino]methyl]morpholin-4-yl]quinoxaline-5-carbonitrile] was tested, and the IC50 was 50 nM.

With `CCOC(=O)C1CNCCN1c1ccc2c(c1)CN(C[C@H]1CN(c3ccc(C#N)c4ncccc34)C[C@@H](C)O1)C2` (stereo partly drawn) [Example 50, Ethyl 1-[2-[[(2S,6R)-4-(8-cyano-5-quinolyl)-6-methyl-morpholin-2-yl]methyl]isoindolin-5-yl] piperazine-2-carboxylate] the IC50 was 259 nM.

Work on `C[C@@H]1CN(c2ccc(C#N)n3nccc23)C[C@H](CN2Cc3ccc(C4CCNC4)cc3C2)O1` (stereo partly drawn) [Example 9, 4-[(2R,6S)-2-methyl-6-[(5-pyrrolidin-3-ylisoindolin-2-yl)methyl]morpholin-4-yl]pyrazolo[1,5-a]pyridine-7-carbonitrile] yielded an IC50 of 64 nM.

With `C[C@@H]1CN(c2ccc(C#N)c3nccnc23)C[C@H](CN2Cc3ccc(N4C5CCC4CNC5)cc3C2)O1` [Example 41, 8-[(2S,6R)-2-[[5-(3,8-diazabicyclo[3.2.1]octan-8-yl)isoindolin-2-yl]methyl]-6-methyl-morpholin-4-yl]quinoxaline-5-carbonitrile] the IC50 was 227 nM.

Compound `C[C@@H]1CN(c2ccc(Cl)c3ncccc23)C[C@H](CN2CCc3cc(N4CCNCC4)ccc3C2)O1` [Example 32, (2R,6S)-4-(8-chloro-5-quinolyl)-2-methyl-6-[(6-piperazin-1-yl-3,4-dihydro-1H-isoquinolin-2-yl)methyl]morpholine] has an IC50 of 123 nM.

In the case of `C[C@@H]1CN(c2ccc(C#N)c3ncccc23)C[C@H](CN2Cc3ccc(N4CCNCC4)nc3C2)O1` [Example 80, 5-[(2R,6S)-2-methyl-6-[(2-piperazin-1-yl-5,7-dihydropyrrolo[3,4-b]pyridin-6-yl)methyl]morpholin-4-yl]quinoline-8-carbonitrile], the IC50 is reported as 56 nM.

Compound `COC(=O)C1CN(c2ccc3c(c2)CN(C[C@H]2CN(c4ccc(C#N)c5ncccc45)C[C@@H](C)O2)C3)CCN1` (stereo partly drawn) [Example 67, Methyl 4-[2-[[(2S,6R)-4-(8-cyano-5-quinolyl)-6-methyl-morpholin-2-yl]methyl]isoindolin-5-yl] piperazine-2-carboxylate] has an IC50 of 221 nM.

Work on `C[C@@H]1CN(c2ccc(C#N)n3ncc(F)c23)C[C@H](CN2CCc3cc(N4CCNCC4)ccc3C2)O1` [Example 14, 3-fluoro-4-[(2R,6S)-2-methyl-6-[(6-piperazin-1-yl-3,4-dihydro-1H-isoquinolin-2-yl)methyl]morpholin-4-yl]pyrazolo[1,5-a]pyridine-7-carbonitrile] yielded an IC50 of 117 nM.

`C[C@@H]1CN(c2ccc(C#N)c3nccnc23)C[C@H](CN2Cc3ccc(N4CCN5CCCCC5C4)cc3C2)O1` (stereo partly drawn) [Example 40, 8-[(2S,6R)-2-[[5-(1,3,4,6,7,8,9,9a-octahydropyrido[1,2-a]pyrazin-2-yl)isoindolin-2-yl]methyl]-6-methyl-morpholin-4-yl]quinoxaline-5-carbonitrile] showed an IC50 of 122 nM.

With `C[C@@H]1CN(c2ccc(C#N)c3ncccc23)C[C@H](CN2Cc3ccc(N4CCNC[C@H]4CO)cc3C2)O1` [Example 83, 5-[(2S,6R)-2-[[5-[(2S)-2-(hydroxymethyl)piperazin-1-yl]isoindolin-2-yl]methyl]-6-methyl-morpholin-4-yl]quinoline-8-carbonitrile] the IC50 was 63 nM.

`C[C@@H]1CN(c2ccc(C#N)n3nccc23)C[C@H](CN2Cc3ccncc3C2)O1` [Example R2, 4-[(2S,6R)-2-(1,3-dihydropyrrolo[3,4-c]pyridin-2-ylmethy1)-6-methyl-morpholin-4-yl]pyrazolo[1,5-a]pyridine-7-carbonitrile, reference compound] gave an IC50 of 47000 nM.

`C[C@@H]1CN(c2ccc(C#N)c3ncccc23)C[C@H](CN2Cc3ccc(N4CC5CCC(C4)N5)cc3C2)O1` [Example 42, 5-[(2S,6R)-2-[[5-(3,8-diazabicyclo[3.2.1]octan-3-yl)isoindolin-2-yl]methyl]-6-methyl-morpholin-4-yl]quinoline-8-carbonitrile] gave an IC50 of 97 nM.

`C[C@@H]1CN(c2ccc(C#N)c3nccnc23)C[C@H](CN2Cc3cnc(N4CCNCC4)cc3C2)O1` [Example 60, 8-[(2R,6S)-2-methyl-6-[(6-piperazin-1-yl-1,3-dihydropyrrolo[3,4-c]pyridin-2-yl)methyl]morpholin-4-yl]quinoxaline-5-carbonitrile] gave an IC50 of 46 nM.

Compound `C[C@@H]1CN(c2ccc(C#N)c3ncccc23)C[C@H](CN2Cc3ccc(N4CCNC[C@@H]4CO)cc3C2)O1` [Example 82, 5-[(2S,6R)-2-[[5-[(2R)-2-(hydroxymethyl)piperazin-1-yl]isoindolin-2-yl]methyl]-6-methyl-morpholin-4-yl]quinoline-8-carbonitrile] has an IC50 of 54 nM.
